These are literature values, as cited in patent publication US12017989B2, “Controlled release pharmaceutical formulations” (United Therapeutics Corporation, priority 2013, dated 2024).

The conditions of this data set: continuous subcutaneous infusion using a pump; Wade et al., J Clin Pharmacol 2004.

Regarding `CCCCC[C@H](O)CC[C@@H]1[C@H]2Cc3cccc(OCC(=O)O)c3C[C@H]2C[C@H]1O` [treprostinil], the “peak-to-trough variation of concentration profile” value is recorded as 20-30%.
